Laboratory results from patent publication US20090005435A1, “Novel Compounds, Pharmaceutical Compositions Containing Same, and Methods of Use for Same” (priority 2004, published 2009).
Values after ≈ are worked out from the molar mass of the structure shown. Values joined by “and” are separate entries in the source; they are usually repeats but may differ in a detail not shown here. Equal entries are not always repeated.

How the values were obtained:
(O) = experiment: XTT cytotoxicity assay (O); assay type: cell-based; settings: read-out: XTT (IC50) (O)
Method: (§1) The XTT assay is a non-radioactive alternative for the [^51Cr] release cytotoxicity assay. XTT is a tetrazolium salt that is reduced to a formazan dye only by metabolically active, viable cells. The reduction of XTT is measured spectrophotometrically as OD490-OD650.
(§2) After 72 hours of incubation, cells are incubated for 4 hours with the XTT reagent as per manufacturer's instructions (Cell Proliferation Kit II (XTT) Roche). Plates are read at OD490 and OD650 on a Molecular Devices SpectraMax Plus Spectrophotometer. Three wells containing the XTT reagent without cells serve as the plate blank. XTT data are reported as OD490-OD650. Averages and standard error of the mean are computed using SOFTmax Pro software ([…]).
(§3) The IC50 for the compounds is defined as the concentration of drug leading to a 50% reduction in OD490-OD650 compared to controls. The OD490-OD650 are computed by the SOFTmax PRO software (Molecular Devices) for each compound concentration. IC50 is calculated by linear regression, plotting the FAS activity as percent of control versus drug concentrations. Linear regression, best-fit line, r^2, and 95% confidence intervals are determined using Prism Version 3.0 (Graph Pad Software).

Weight loss screen = assay type: in vivo, Balb/C mice; settings: 60 mg/kg
Method: Weight Loss Screen for Novel FAS Inhibitors Balb/C mice (Jackson Labs) are utilized for the initial weight loss screening. Animals are housed in temperature and 12 hour day/night cycle rooms and fed mouse chow and water ad lib. Three mice are utilized for each compound tested with vehicle controls in triplicate per experiment. For the experiments, mice are housed separately for each compound tested three mice to a cage. Compounds are diluted in DMSO at 10 mg/ml and mice are injected intraperitoneally with 60 mg/kg in approximately 100 μl of DMSO or with vehicle alone. Mice are observed and weighed daily; average weights and standard errors are computed with Excel (Microsoft). The experiment continues until treated animals reach their pretreatment weights. Select compounds are tested in animals housed in metabolic cages. Dosing of animals are identical to the screening experiments with three animals to a single metabolic cage. Animal weights, water and food consumption, and urine and feces production are measured daily.

[1] = tested on: MCF-7 human breast cancer cells; experiment: XTT cytotoxicity assay (M); assay type: cell-based; settings: MCF7
Method: as §1
To measure the cytotoxicity of specific compounds against cancer cells, 9×10^3 MCF-7 human breast cancer cells, obtained from the American Type Culture Collection are plated per well in 96 well plates in DMEM medium with 10% fetal bovine serum, insulin, penicillin, and streptomycin. Following overnight culture at 37° C. and 5% CO2, the compounds to be tested, dissolved in DMSO, are added to the wells in 1 μl volume at the following concentrations: 80, 40, 20, 10, 5, 2.5, 1.25, and 0.625 μg/ml in triplicate. Additional concentrations are tested if required. 1 μl of DMSO is added to triplicate wells are the vehicle control. C75 is run at 40, 20, […], and 5 μg/ml in triplicate as positive controls.
as §2, §3

fatty acid oxidation = experiment: β-Oxidation assay, isolation of acid soluble products; assay type: cell-based; set-up: Beta Oxidation: unit not given here; settings: for FAO MAx: maximal fatty acid oxidation, at the concentration given under E32
Method: β-Oxidation Assay—Isolation of Acid Soluble Products A 24 well plate with 1 ml per well was prepared with 2.5×10^5 cells/well. The cells were incubated O/N. The next day, a solubilized palmitate solution was prepared. 50 μls of (1-^14C) Palmitic acid was added to a 2 ml centrifuge tube and dried under nitrogen gas. 2 mls of α-CD (α-Cyclodextran)-10 mg/ml in 10 mM Tris were added. This solution was incubated in a 37° C. water bath for 30 minutes. A hot mix was prepared by adding 25 μls of this solution to 2.5 μls of 200 μM Carnitine and 222.5 μls of serum free medium that is used for cells. The cells were then treated with the test compound in triplicate, and incubated at 37° C. for 60 minutes. The medium was removed and 250 μls of the hot mix were added. The test compound was added again, and further incubated at 37° C. for 60 minutes. The reaction was stopped with 50 μls of 2.6 N HClO4. The contents of the plate were transferred to a 1.5 ml centrifuge tube, and 50 μls of 4N KOH were then added, and the tube incubated in a 60° C. water bath for 30 min. Sodium acetate (1M, 75 μls) and sulfuric acid (3N, 50 μls) were added to the solution and vortexed. The tube was spun for 7 minutes at 1000 rpm at room temperature. A portion (225 μls) was removed, and the following were added (vortex after each addition, twice at the end): 938 μls of 1:1 Chloroform:Methanol; 468 μls of Chloroform; 281 μls distilled Water. The tubes were spun at 1000 rpm for 5 minutes. The upper phase was removed into a large glass scintillation vial and 5 mls of Budget solvent (scintillation liquid) was added. The tubes were well vortexed. Finally, C14 was counted for one minute.

Structure (SMILES) | IC50 ((O)) [µg/mL] | Weight Loss (Weight loss screen; day 1) | IC50 [1] [µg/mL] | Beta Oxidation (fatty acid oxidation; 1.25 ug/ml) | Beta Oxidation (fatty acid oxidation; 2.5 ug/ml) | Beta Oxidation (fatty acid oxidation; 5 ug/ml) | Beta Oxidation (fatty acid oxidation; 10 ug/ml) | Beta Oxidation (fatty acid oxidation; 20 ug/ml) | Beta Oxidation (fatty acid oxidation; 40 ug/ml) | Weight Loss (Weight loss screen; day 2) | FAO MAx, concentration at maximum (fatty acid oxidation) [µg/mL] | FAO SC 150 (fatty acid oxidation) [µg/mL] | Beta Oxidation (fatty acid oxidation; 0.097 ug/ml) | Beta Oxidation (fatty acid oxidation; 0.39 ug/ml) | Beta Oxidation (fatty acid oxidation; 1.56 ug/ml) | Beta Oxidation (fatty acid oxidation; 6.25 ug/ml) | Beta Oxidation (fatty acid oxidation; 25 ug/ml) | Beta Oxidation (fatty acid oxidation; 100 ug/ml) | FAO MAx (fatty acid oxidation) [%]
C=CCC1(CC=C)C(=O)SC(C)(CCCCCCCC)C1=O (racemic) [Compound 4, 3,3-Diallyl-5-methyl-5-octyl-thiophene-2,4-dione] | 53.7 ± 1 (≈ 167 µM) | 7.9% and 8.0% and 6.8% | 40.5 ± 14.8 (≈ 126 µM) | 94 and 151 | 114 and 163 | 120 and 154 and 177 | 163 and 177 and 184 | 147 | 101 | – | – | – | – | – | – | – | – | – | –
CCCCCCCCCCC1(C)SC(=O)C(C)(C)C1=O (stereo not drawn) [Compound 12, 3,3,5-Trimethyl-5-decyl-thiophene-2,4-dione] | > 80 | – | 23.2 (≈ 77.7 µM) | – | – | – | – | – | – | 60 mg/kg: 9.0% (day 2) | 1.56 | 1.4 | 100 | 120 | 154 | 141 | 75 | 68 | 154
C=CCC1(CC=C)C(=O)SC(C)(CCCCCCCCCC)C1=O (stereo not drawn) [Compound 15, 3,3-Diallyl-5-methyl-5-decyl-thiophene-2,4-dione] | > 80 | – | 71.8 (≈ 205 µM) | – | – | – | – | – | – | 60 mg/kg: 3.5% (day 2) | 25 | 16.0 | 105 | 114 | 127 | 138 | 165 | 150 | 165
